Laboratory results: US11111259B2, “Acylsulfonamide derivatives for treating senescence-associated diseases and disorders” (Unity Biotechnology, Inc., priority 2015, dated 2021)

Columns and labels:
[1] = system: IMR-90 SnC (irradiated senescent IMR90 cells); assay: Senolysis assay (CellTiter-Glo viability); assay type: cell-based, human; details: for EC50: Homo sapiens, IMR-90, light or radiation study, 72 h, X-ray irradiated senescent IMR90 cells, viability three days after compound addition; for SI (ratio of EC50 of non-senescent cells to EC50 of senescent cells): IMR90 non-senescent vs senescent cells
Description: IMR90 cells are maintained in DMEM supplemented with 10% FBS. To prepare a senescent population, cells were trypsinized, diluted to 50,000 per mL, and irradiated with 10-15 Gy of X-ray irradiation. Irradiated cells were plated at 5000 cells per well in one third of a 96-well plate and maintained for two weeks prior to the assay. Four days prior to the assay, non-senescent IMR90s were plated at 2500 per well in the second third of the plate. One day prior to the assay, 2500 non-senescent cells were plated in the final third of the plate. Compounds were prepared as a 200×DMSO dilution series then diluted to 1× in media immediately before adding to cells. Three days after compound addition, cell viability was measured using CellTiter-Glo reagent from Promega. Viability was calculated relative to a DMSO control and EC50 values are calculated in Prism GraphPad. […] The selectivity (SI) of the compounds described herein is a ratio of the EC50 of non-senescent cells to the EC50 of senescent cells. The SI of the compounds described herein is 10 or above for “A” selectivity, between 2 and 10 for “B” selectivity or 2 or less for “C” selectivity.

[2] = molecular target: BCL-xL (Homo sapiens, UniProt Q07817); assay: BCL-binding assay (AlphaLISA competition, BAD peptide); details: 6xHis BCL-xL with biotinylated BAD peptide, 24 hr incubation
Description: (§1) Compounds were prepared as 400× DMSO stock solutions in a 1:4 dilution series then diluted […] in assay buffer (25 mM HEPES pH 7.5, 100 mM NaCl, 0.1% BSA, 0.005% Tween) immediately before use. Aliquots of 400 nM 6xHis-tagged BCL-xL, BCL-2, and BCL-w were thawed on ice and diluted to 0.4 (BCL-XL) or 0.8 (BCL-W and 2) nM in assay buffer. Aliquots of biotinylated BIM and BAD peptides were diluted in assay buffer to 120 and 60 nM respectively. Ten microliters of biotinylated peptide were added to wells of a 96-well PCR plate, followed by ten microliters of inhibitor, then ten microliters of BCL protein, BCL-XL with BAD and BCL-W/2 with BIM. The plates were sealed and incubated at room temperature. After 24 hr, 0.16 μg Anti-His conjugated AlphaLISA acceptor beads were added in 5 μL assay buffer. After one hour at room temperature, 0.16 μg AlphaScreen streptavidin donor beads were added in 5 μL assay buffer and plates were incubated an additional 30 min in the dark. Two 17 μL aliquots of each reaction were plated in a Perkin Elmer 384-well proxiplate, and plates were scanned for using a Perkin Elmer Enspire plate reader. Kd values were calculated in Prism Graph Pad using a one site competitive binding model and previously determined Kd values for each protein peptide pair. […]

[3] = molecular target: BCL-2 (Homo sapiens, UniProt P10415); assay: BCL-binding assay (AlphaLISA competition, BIM peptide); details: 6xHis BCL-2 with biotinylated BIM peptide, 24 hr incubation
Description: as §1

[4] = molecular target: T1, BCL-w (Homo sapiens, UniProt Q92843); assay: as above; details: 6xHis BCL-w with biotinylated BIM peptide, 24 hr incubation
T1 sequence (Q92843 1-193): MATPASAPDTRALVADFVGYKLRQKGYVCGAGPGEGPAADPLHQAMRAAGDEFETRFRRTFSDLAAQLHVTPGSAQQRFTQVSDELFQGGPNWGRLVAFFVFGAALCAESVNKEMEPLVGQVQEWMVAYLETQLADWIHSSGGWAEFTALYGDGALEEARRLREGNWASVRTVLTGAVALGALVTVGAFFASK
Description: as §1

Chain of BCL-2 (P10415 whole entry, species assumed): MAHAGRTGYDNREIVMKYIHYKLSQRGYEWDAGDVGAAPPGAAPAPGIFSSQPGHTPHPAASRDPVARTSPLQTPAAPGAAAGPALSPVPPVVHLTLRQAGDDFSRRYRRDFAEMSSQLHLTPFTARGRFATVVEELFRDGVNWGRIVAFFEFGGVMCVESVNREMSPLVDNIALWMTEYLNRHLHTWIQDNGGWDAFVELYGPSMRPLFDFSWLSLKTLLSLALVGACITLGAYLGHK
Chain of BCL-xL (Q07817 whole entry, species assumed): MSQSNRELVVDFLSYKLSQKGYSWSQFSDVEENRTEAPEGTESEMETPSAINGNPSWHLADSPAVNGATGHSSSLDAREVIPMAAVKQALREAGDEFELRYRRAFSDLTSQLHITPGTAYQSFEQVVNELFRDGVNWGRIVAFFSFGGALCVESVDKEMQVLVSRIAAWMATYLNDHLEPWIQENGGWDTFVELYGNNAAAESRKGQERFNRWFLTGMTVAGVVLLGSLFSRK

Structure (SMILES) | EC50 [1] [nM] | SI (ratio of EC50 of non-senescent cells to EC50 of senescent cells) [1] | Kd [2] [nM] | Kd [3] [nM] | Kd [4] [nM]
CCOP(=O)(CN1CCN(CC[C@H](CSc2ccccc2)Nc2ccc(S(=O)(=O)NC(=O)c3ccc(N4CCN(CC5=C(c6ccc(Cl)cc6)CCC(C)(C)C5)CC4)cc3)cc2S(=O)(=O)C(F)(F)F)CC1)OCC [Compound 6] | < 1000 | A (10 or above) | < 1 | < 1 | 1 to 10
CC1(C)CCC(c2ccc(Cl)cc2)=C(CN2CCN(c3ccc(C(=O)NS(=O)(=O)c4ccc(N[C@H](CCN5CCN(CP(=O)(O)O)CC5)CSc5ccccc5)c(S(=O)(=O)C(F)(F)F)c4)cc3)CC2)C1 [Compound 7] | > 10000 | B (between 2 and 10) | < 1 | < 1 | 10 to 50
CCOP(=O)(CCN1CCN(CC[C@H](CSc2ccccc2)Nc2ccc(S(=O)(=O)NC(=O)c3ccc(N4CCN(CC5=C(c6ccc(Cl)cc6)CCC(C)(C)C5)CC4)cc3)cc2S(=O)(=O)C(F)(F)F)CC1)OCC [Compound 9] | < 1000 | A (10 or above) | < 1 | < 1 | 1 to 10
CCOP(=O)(CCN(C)CC[C@H](CSc1ccccc1)Nc1ccc(S(=O)(=O)NC(=O)c2ccc(N3CCN(CC4=C(c5ccc(Cl)cc5)CCC(C)(C)C4)CC3)cc2)cc1S(=O)(=O)C(F)(F)F)OCC [Compound 10] | 1000 to 10000 | A (10 or above) | < 1 | < 1 | 1 to 10
CCOP(=O)(O)CCN(C)CC[C@H](CSc1ccccc1)Nc1ccc(S(=O)(=O)NC(=O)c2ccc(N3CCN(CC4=C(c5ccc(Cl)cc5)CCC(C)(C)C4)CC3)cc2)cc1S(=O)(=O)C(F)(F)F [Compound 11] | > 10000 | C (2 or less) | < 1 | < 1 | 1 to 10
CN(CC[C@H](CSc1ccccc1)Nc1ccc(S(=O)(=O)NC(=O)c2ccc(N3CCN(CC4=C(c5ccc(Cl)cc5)CCC(C)(C)C4)CC3)cc2)cc1S(=O)(=O)C(F)(F)F)CCP(=O)(O)O [Compound 12] | > 10000 |  | < 1 | < 1 | 10 to 50
CC1(C)CCC(c2ccc(Cl)cc2)=C(CN2CCN(c3ccc(C(=O)NS(=O)(=O)c4ccc(N[C@H](CCN5CCN(CCP(=O)(O)O)CC5)CSc5ccccc5)c(S(=O)(=O)C(F)(F)F)c4)cc3)CC2)C1 [Compound 13] | > 10000 |  | < 1 | < 1 | 1 to 10
CCOP(=O)(O)CCN1CCN(CC[C@H](CSc2ccccc2)Nc2ccc(S(=O)(=O)NC(=O)c3ccc(N4CCN(CC5=C(c6ccc(Cl)cc6)CCC(C)(C)C5)CC4)cc3)cc2S(=O)(=O)C(F)(F)F)CC1 [Compound 14] | > 10000 |  | < 1 | < 1 | 1 to 10
CC(C)OP(=O)(CN1CCN(CC[C@H](CSc2ccccc2)Nc2ccc(S(=O)(=O)NC(=O)c3ccc(N4CCN(CC5=C(c6ccc(Cl)cc6)CCC(C)(C)C5)CC4)cc3)cc2S(=O)(=O)C(F)(F)F)CC1)OC(C)C [Compound 15] | 1000 to 10000 | B (between 2 and 10) | < 1 | < 1 | 10 to 50
CCOP(=O)(O)CC1CCN(CC[C@H](CSc2ccccc2)Nc2ccc(S(=O)(=O)NC(=O)c3ccc(N4CCN(CC5=C(c6ccc(Cl)cc6)CCC(C)(C)C5)CC4)cc3)cc2S(=O)(=O)C(F)(F)F)CC1 [Compound 49, Ethylhydrogen((1-((R)-3-((4-(N-(4-(4-((4′-chloro-4,4-dimethyl-3,4,5,6-tetrahydro-[1,1′-biphenyl]-2-yl)methyl)piperazin-1-yl)benzoyl)sulfamoyl)-2-((trifluoromethyl)sulfonyl)phenyl)amino)-4-(phenylthio)butyl)piperidin-4-yl)methyl)phosphonate] |  |  | < 1 | < 1 | 1 to 10
